From patent US20230099803A1, “OXAZOLIDINONE FOR TREATMENT OF INFECTIONS WITH MYCOBACTERIUM TUBERCULOSIS” (priority 2017, published 2023)
Converted amounts (≈) assume the structure as drawn. Read-outs that look alike come from different tables or passages of the source.

Experiments:
[1] = test system: Enterococcus faecalis; assay: MIC90 broth microdilution; assay type: cell-based; conditions: ATCC19433, ATCC 19433, 35° C., 18 hours
[2] = test system: Mycobacterium tuberculosis; conditions: values marked with literature reference (^4,11 or ^15), cited from earlier work
[3] = test system: Staphylococcus aureus methicillin-sensitive; assay: MIC90 broth microdilution; assay type: cell-based; conditions: ATCC29213, ATCC 29213, 35° C., 18 hours
[4] = test system: Enterobacter cloacae; assay: MIC90 broth microdilution; assay type: cell-based; conditions: for MIC90: Enterobacter cloacae, ATCC13047, ATCC 13047, 35° C., 18 hours
[5] = test system: Staphylococcus aureus; conditions: general statement on linezolid; cited from earlier work
[6] = test system: Acinetobacter baumannii ACBA; assay: MIC90 broth microdilution; assay type: cell-based; conditions: patient isolate ACBA, 35° C., 18 hours
[7] = test system: Pseudomonas aeruginosa; assay: MIC90 broth microdilution; assay type: cell-based; conditions: for MIC90: Pseudomonas aeruginosa, PA14, 35° C., 18 hours
[8] = test system: Acinetobacter baumannii 6M-1b; assay: MIC90 broth microdilution; assay type: cell-based; conditions: 6M1B, environmental strain 6M-1b, 35° C., 18 hours
[9] = test system: Klebsiella pneumoniae; assay: MIC90 broth microdilution; assay type: cell-based; conditions: for MIC90: Klebsiella pneumoniae, ATCC35657, ATCC 35657, 35° C., 18 hours
[10] = test system: Acinetobacter baumannii ATCC 19606; assay: MIC90 broth microdilution; assay type: cell-based; conditions: ATCC19606, strain ATCC 19606, 35° C., 18 hours
[11] = test system: Mycobacterium tuberculosis; assay: MIC90 broth macrodilution; conditions: H37Rv; 7H9 broth, fourteen days at 37° C.
[12] = test system: Mycobacterium avium; assay: MIC90 broth microdilution; assay type: cell-based; conditions: for MIC90: Mycobacterium avium, 168 h, strain 104, seven days at 37° C.
[13] = test system: Mycobacterium abscessus; assay: MIC90 broth microdilution; assay type: cell-based; conditions: for MIC90: Mycobacteroides abscessus, ATCC19977, 72 h, ATCC 19977, 30° C., 3 days
[14] = test system: methicillin-resistant Staphylococcus aureus; assay: Checkerboard titration assay; assay type: cell-based; conditions: T145 combined with doripenem, biapenem, faropenem and tebipenem; 1x to 1/16x MIC90
[15] = test system: Enterococcus faecalis; assay: Checkerboard titration assay; assay type: cell-based; conditions: T145 combined with doripenem, biapenem, faropenem and tebipenem; 1x to 1/16x MIC90
[16] = test system: Staphylococcus aureus; assay: Minimum bactericidal concentration (MBC99.9); assay type: cell-based; conditions: up to 8 times MIC90
[17] = test system: methicillin-resistant Staphylococcus aureus ATCC 43300; assay: MIC90 determination; assay type: cell-based; conditions: ATCC43300, methicillin-resistant strain ATCC 43300
[18] = test system: Mycobacterium tuberculosis; assay: Checkerboard titration assay; assay type: cell-based; conditions: T145 combined with isoniazid or rifampicin
Description: The inventors also evaluated if any drug-drug interaction existed between T145 and isoniazid or rifampicin, two drugs that comprise the backbone of tuberculosis treatment today, against Mycobacterium tuberculosis using the checkerboard assay as described above. Any antagonism or synergy between T145 and isoniazid or rifampicin is not observed, and therefore that activity of T145 against Mycobacterium tuberculosis is indifferent to that of isoniazid or rifampicin.
This assay is a modification of the broth dilution assay and was carried out as described. In summary, each well containing 10^5 CFU received two drugs each in two fold dilutions below their respective MIC90. The suspensions are incubated at 37° C. and growth was evaluated as described above. Fractional Inhibitory Concentration (FIC) of a drug in a combination that inhibits bacterial growth is the concentration of the drug in the well divided by MIC90 of the drug if used alone. The sum of FIC of each drug in the combination is the FIC index. In each well where bacterial growth was absent, FIC index was calculated and an average FIC index was determined. Drug-drug antagonism was inferred if average FIC index is >2, indifference if 0.5-2.0 and synergy if ≤ 0.5.

[19] = test system: Staphylococcus aureus
[20] = test system: Mycobacterium tuberculosis; assay: Minimum bactericidal concentration (MBC99.9); assay type: cell-based
[21] = test system: Enterococcus faecalis; assay: Minimum bactericidal concentration (MBC99.9); assay type: cell-based; conditions: up to 8 times MIC90
[22] = test system: Enterococcus faecalis
[23] = test system: methicillin-sensitive Staphylococcus aureus; assay: Checkerboard titration assay; assay type: cell-based; conditions: T145 combined with doripenem, biapenem, faropenem and tebipenem; 1x to 1/16x MIC90
[24] = Acinetobacter baumannii, read-out: MIC90

Q: Which MIC90 [1] does the source give for C[C@@H](O)[C@H]1C(=O)N2C(C(=O)[O-])=C(SC3Cn4cnc[n+]4C3)[C@H](C)[C@H]12 (stereo partly shown) [Biapenem] here?
A: Its MIC90 is 0.25 to 0.5 µg/mL (≈ 0.713 to 1.43 µM).

Q: And the MIC90 [2]?
A: Its MIC90 is 2.5-5.0 ^15 µg/ml.

Q: And the MIC90 [3]?
A: Its MIC90 is 0.007 to 0.015 µg/mL (≈ 0.02 to 0.0428 µM).

Q: Which MIC90 [1] does the source give for C[C@@H](O)[C@H]1C(=O)N2C(C(=O)O)=C(S[C@@H]3CN[C@H](CNS(N)(=O)=O)C3)[C@H](C)[C@H]12 [Doripenem] here?
A: Its MIC90 is 0.25 to 0.5 µg/mL (≈ 0.595 to 1.19 µM).

Q: And the MIC90 [2]?
A: The MIC90 was 2.5-5.0 ^15 µg/ml.

Q: And the MIC90 [3]?
A: The MIC90 was 0.003 to 0.007 µg/mL (≈ 0.00713 to 0.0166 µM).

Q: For C[C@@H](O)[C@H]1C(=O)N2C(C(=O)O)=C([C@H]3CCCO3)S[C@H]12 [Faropenem], which MIC90 [1] is on record?
A: The MIC90 was 0.25 to 0.5 µg/mL (≈ 0.876 to 1.75 µM).

Q: And the MIC90 [2]?
A: Its MIC90 is 2.5-5.0 ^15 µg/ml.

Q: And the MIC90 [3]?
A: The MIC90 was 0.015 to 0.03 µg/mL (≈ 0.0526 to 0.105 µM).

Q: Which MIC90 [4] does the source give for CC(=O)NC[C@H]1CN(c2ccc(N3CCOCC3)c(F)c2)C(=O)O1 [Linezolid] here?
A: Its MIC90 is over 64 µg/mL.

Q: And the MIC90 [1]?
A: The MIC90 was 1 to 2 µg/mL (≈ 2.96 to 5.93 µM).

Q: What about the “bactericidal or bacteriostatic activity” value [5] of the same molecule?
A: Its value is “bacteriostatic”.

Q: And the MIC90 [2]?
A: The MIC90 was 0.2-2.0 ^4,11 µg/ml.

Q: What about the MIC90 ([2]; listed as linezolid) of the same molecule?
A: The MIC90 was 0.5 to 2.0 µg/mL.

Q: And the MIC90 [6, 24]?
A: The MIC90 was over 64 µg/mL.

Q: What about the MIC90 [6] of the same molecule?
A: Its MIC90 is over 64 µg/mL.

Q: And the MIC90 [7]?
A: The MIC90 was over 64 µg/mL.

Q: And the MIC90 [8]?
A: Its MIC90 is 0.25 to 0.5 µg/mL (≈ 0.741 to 1.48 µM).

Q: And the MIC90 [9]?
A: Its MIC90 is 16 to 32 µg/mL (≈ 47.4 to 94.9 µM).

Q: What about the MIC90 [3] of the same molecule?
A: The MIC90 was 1 to 2 µg/mL (≈ 2.96 to 5.93 µM).

Q: And the MIC90 [10]?
A: Its MIC90 is over 64 µg/mL.

Q: With C[C@@H](O)[C@H]1C(=O)N2C(C(=O)O)=C(S[C@@H]3CN[C@H](C(=O)N(C)C)C3)[C@H](C)[C@H]12 [Meropenem] as the molecule, how does the MIC90 [4] read?
A: Its MIC90 is 0.13 to 0.25 µg/mL (≈ 0.339 to 0.652 µM).

Q: And the MIC90 [11]?
A: Its MIC90 is 4 to 8 µg/mL.

Q: What about the MIC90 [1] of the same molecule?
A: The MIC90 was 4 to 8 µg/mL (≈ 10.4 to 20.9 µM).

Q: What about the MIC90 [12] of the same molecule?
A: The MIC90 was over 64 µg/mL.

Q: And the MIC90 [6, 24]?
A: Its MIC90 is over 64 µg/mL.

Q: What about the MIC90 [6] of the same molecule?
A: The MIC90 was over 64 µg/mL.

Q: And the MIC90 [7]?
A: Its MIC90 is 0.25 to 0.5 µg/mL (≈ 0.652 to 1.3 µM).

Q: And the MIC90 [8]?
A: Its MIC90 is 1 to 2 µg/mL (≈ 2.61 to 5.22 µM).

Q: And the MIC90 [9]?
A: The MIC90 was under 0.06 µg/mL.

Q: What about the MIC90 [3] of the same molecule?
A: Its MIC90 is 0.06 to 0.13 µg/mL (≈ 0.156 to 0.339 µM).

Q: What about the MIC90 [13] of the same molecule?
A: Its MIC90 is over 64 µg/mL.

Q: What about the MIC90 [10] of the same molecule?
A: Its MIC90 is over 64 µg/mL.

Q: With CC(=O)NC[C@H]1CN(c2ccc3c(c2)Oc2ccccc2O3)C(=O)O1 [T145, N-(((S)-3-(dibenzo[b,e][1,4]dioxin-7-yl)-2-oxooxazolidin-5-yl)methyl)acetamide] as the molecule, how does the “drug-drug interaction (synergy, indifference or antagonism)” value [14] read?
A: Its value is “indifferent”.

Q: And the “antimicrobial activity (in words)” value [4]?
A: Its value is “no activity”.

Q: And the MIC90 [4]?
A: Its MIC90 is over 64 µg/mL.

Q: What about the MIC90 [11] of the same molecule?
A: The MIC90 was 0.5 to 1.0 µg/mL.

Q: And the MIC90 [1]?
A: Its MIC90 is 0.25 to 0.5 µg/mL (≈ 0.735 to 1.47 µM).

Q: And the “antimicrobial activity (in words)” value [12]?
A: The value was “no activity”.

Q: What about the MIC90 [12] of the same molecule?
A: The MIC90 was over 64 µg/mL.

Q: What about the “drug-drug interaction (synergy, indifference or antagonism)” value [15] of the same molecule?
A: The value was “indifferent”.

Q: What about the “bactericidal or bacteriostatic activity” value [16] of the same molecule?
A: Its value is “bacteriostatic”.

Q: And the MIC90 [17]?
A: The MIC90 was 0.5 to 1 µg/mL (≈ 1.47 to 2.94 µM).

Q: And the “drug-drug interaction (synergy, indifference or antagonism)” value [18]?
A: Its value is “indifferent”.

Q: And the MIC90 [6, 24]?
A: Its MIC90 is over 64 µg/mL.

Q: And the MIC90 [6]?
A: Its MIC90 is over 64 µg/mL.

Q: What about the “antimicrobial activity (in words)” value [7] of the same molecule?
A: Its value is “no activity”.

Q: What about the MIC90 [7] of the same molecule?
A: Its MIC90 is over 64 µg/mL.

Q: What about the “selection of spontaneous resistant mutants” value [19] of the same molecule?
A: The value was “did not form classical distinct single colonies”.

Q: What about the MIC90 [8] of the same molecule?
A: The MIC90 was 0.25 to 0.5 µg/mL (≈ 0.735 to 1.47 µM).

Q: What about the “bactericidal or bacteriostatic activity” value ([20]; 1, 2, 4 and 8 times MIC90) of the same molecule?
A: Its value is “bactericidal”.

Q: And the MBC ([20]; Mycobacterium tuberculosis, concentration at which 99.9% of bacilli are killed)?
A: Its MBC is 2 µg/mL (≈ 5.88 µM).

Q: What about the “bactericidal or bacteriostatic activity” value [21] of the same molecule?
A: The value was “bacteriostatic”.

Q: And the “antimicrobial activity (in words)” value [9]?
A: Its value is “no activity”.

Q: And the MIC90 [9]?
A: The MIC90 was over 64 µg/mL.

Q: What about the MIC90 [3] of the same molecule?
A: The MIC90 was 0.5 to 1 µg/mL (≈ 1.47 to 2.94 µM).

Q: What about the “selection of spontaneous resistant mutants” value [22] of the same molecule?
A: Its value is “did not form classical distinct single colonies”.

Q: And the “drug-drug interaction (synergy, indifference or antagonism)” value [23]?
A: Its value is “indifferent”.

Q: What about the “antimicrobial activity (in words)” value [13] of the same molecule?
A: The value was “no activity”.

Q: What about the MIC90 [13] of the same molecule?
A: Its MIC90 is over 64 µg/mL.

Q: What about the MIC90 [10] of the same molecule?
A: The MIC90 was 32 to 64 µg/mL (≈ 94 to 188 µM).

Q: Which MIC90 [1] does the source give for C[C@@H](O)[C@H]1C(=O)N2C(C(=O)O)=C(SC3CN(C4=NCCS4)C3)[C@H](C)[C@H]12 [Tebipenem] here?
A: Its MIC90 is 0.25 to 0.5 µg/mL (≈ 0.652 to 1.3 µM).

Q: What about the MIC90 [2] of the same molecule?
A: The MIC90 was 1.25-2.5 ^15 µg/ml.

Q: And the MIC90 [3]?
A: Its MIC90 is 0.03 to 0.06 µg/mL (≈ 0.0782 to 0.156 µM).
